Active and inactive are the calls of the source. The calls are words filed in the database; no cut-off is given here.
Experiments:
[1] = test system: Staphylococcus aureus; assay: Antibacterial activity against Staphylococcus aureus ATCC 6538 at 0.1 mg/mL incubated for 12 hrs by agar dilution method; assay type: functional, organism-based
[2] = test system: Pseudomonas aeruginosa; assay: Antibacterial activity against Pseudomonas aeruginosa ATCC 10145 at 0.1 mg/mL incubated for 12 hrs by agar dilution method; assay type: functional, organism-based
[3] = test system: Nakaseomyces glabratus; assay: Antifungal activity against Candida glabrata ATCC 2001 at 0.1 mg/mL incubated for 12 hrs by agar dilution method; assay type: functional, organism-based
[4] = test system: Candida albicans; assay: Antifungal activity against Candida albicans ATCC 10231 at 0.1 mg/mL incubated for 12 hrs by agar dilution method; assay type: functional, organism-based
[5] = test system: L02; assay: Cytotoxicity against human L02 cells incubated for 48 hrs by CCK8 assay; assay type: toxicity, cell-based; conditions: l02, 48 h
[6] = test system: PC-9; assay: Cytotoxicity against human PC-9 cells incubated for 48 hrs by CCK8 assay; assay type: functional, cell-based
[7] = test system: Staphylococcus aureus; assay: Antibacterial activity against methicillin-resistant Staphylococcus aureus subsp. aureus ATCC 43300 at 0.1 mg/mL incubated for 12 hrs by agar dilution method; assay type: functional, organism-based
[8] = test system: A549; assay: Cytotoxicity against human A549 cells incubated for 48 hrs by CCK8 assay; assay type: functional, cell-based
[9] = test system: Escherichia coli; assay: Antibacterial activity against Escherichia coli ATCC 11775 at 0.1 mg/mL incubated for 12 hrs by agar dilution method; assay type: functional, organism-based
[10] = test system: HCT-116; assay: Cytotoxicity against human HCT-116 cells incubated for 48 hrs by CCK8 assay; assay type: functional, cell-based

Row | Structure (SMILES) | Activity [1] | Activity [2] | Activity [3] | Activity [4] | Activity [5] | Activity [6] | Activity [7] | Activity [8] | Activity [9] | Activity [10]
1 | COc1cc(=O)oc(\C=C/C=C/C=C/[C@]2(C)O[C@]3(C)[C@@H](O)[C@@](C)(O[C@@H]3C)[C@@H]2O)c1C | inactive | inactive | inactive | inactive | Non-toxic | inactive | inactive | inactive | inactive | 
2 | COc1cc(=O)oc(/C=C/C=C/C=C\[C@]2(C)O[C@]3(C)[C@@H](O)[C@](C)(O[C@@H]3C)[C@@H]2O)c1C | inactive | inactive | inactive | inactive | Non-toxic | inactive | inactive | inactive | inactive | 
3 | COc1cc(=O)oc(/C=C/C=C/C=C/[C@]2(C)O[C@]3(C)[C@@H](O)[C@@](C)(O[C@@H]3C)[C@@H]2O)c1C | inactive | inactive | inactive | inactive | Non-toxic | inactive | inactive | inactive | inactive | 
4 | COc1cc(=O)oc(/C=C/C=C/C=C/C(C)=C/[C@]2(C)O[C@H](C)[C@](C)(O)[C@H]2O)c1C | inactive | inactive | inactive | inactive | Non-toxic |  | inactive | inactive | inactive | inactive
5 | COc1cc(=O)oc(/C=C/C=C/C=C/[C@]2(C)O[C@]3(C)[C@@H](O)[C@@](C)(O[C@@H]3C)C2=O)c1C | inactive | inactive | inactive | inactive | Non-toxic | inactive | inactive | inactive | inactive | 
6 | COc1cc(=O)oc(/C=C/C=C/C=C/[C@@]2(C)O[C@]3(C)[C@@H](O)[C@](C)(O[C@@H]3C)[C@H]2O)c1C | inactive | inactive | inactive | inactive | Non-toxic | inactive | inactive | inactive | inactive | 
7 | COc1cc(=O)oc(/C=C/C=C/C=C/[C@@]2(C)O[C@@]3(C)[C@@H](C)O[C@](C)(C2=O)[C@H]3O)c1C | inactive | inactive | inactive | inactive | Non-toxic | inactive | inactive | inactive | inactive | 
8 | COc1cc(=O)oc(/C=C/C=C/C=C\[C@@]2(C)O[C@]3(C)[C@@H](O)[C@](C)(O[C@@H]3C)[C@@H]2O)c1C | inactive | inactive | inactive | inactive | Non-toxic | inactive | inactive | inactive | inactive | 
9 | COc1cc(=O)oc(/C=C/C=C/C=C/C(C)=C\[C@]2(C)O[C@H](C)[C@](C)(O)[C@H]2O)c1C | inactive | inactive | inactive | inactive | Non-toxic |  | inactive | inactive | inactive | inactive
10 | COc1cc(=O)oc(\C=C/C=C/C=C/C(C)=C/[C@]2(C)O[C@H](C)[C@](C)(O)[C@H]2O)c1C | inactive | inactive | inactive | inactive | Non-toxic |  | inactive | inactive | inactive | inactive
11 | COc1cc(=O)oc(/C=C/C=C/C=C/[C@@]2(C)O[C@]3(C)[C@@H](O)[C@@](C)(O[C@@H]3C)C2=O)c1C | inactive | inactive | inactive | inactive | Non-toxic | inactive | inactive | inactive | inactive | 
12 | COc1cc(=O)oc(/C=C/C=C/C=C/[C@]2(C)O[C@]3(C)[C@@H](O)[C@@](C)(O[C@@H]3C)[C@H]2O)c1C | inactive | inactive | inactive | inactive | Non-toxic | inactive | inactive | inactive | inactive | 

Reference: ChEMBL document CHEMBL6153093, “Aurovertins from a Marine-Derived Penicillium Species and Nonenzymatic Reactions in Their Formation” (J Nat Prod, 2025)
